Values joined by “and” are separate entries in the source; they are usually repeats but may differ in a detail not shown here. Equal entries are not always repeated.
Tests used:
COX2 = experiment: SphK1-mediated COX2 acetylation with [14C] acetyl-CoA (ATP competition, SphK1 mutants; Supplementary Fig 1h,i); assay type: biochemical, human; conditions: COX2 +
Description: Single point mutations in SphK1 (R56A, R57A, R24A, R185A, D178A, and F192A) and COX2 (S565A, N181A, T564A, and S567A) were generated using the In-Fusion Cloning Kits (Clontech) and ORF cDNA expression plasmids of human SphK1 and COX2 gene (Sino Biological Inc, HG15679-NH and HG12036-NH), according to the manufacturer’s instructions. The forward and reverse primers described in Supplementary Table 4. The SphK1 WT, SphK1 mutants, COX2 WT, and COX2 mutant plasmids were transformed in the One shot TOP 10 competent cell (Invitrogen). The bacteria were grown in Luria-Bertani (LB, Invitrogen) plates supplemented with 50 μg ml^−1 kanamycin (Sigma-Aldrich) at 37 °C. The bacterial cell pellets were resuspended in lysis buffer containing 20 mM sodium phosphate (GE Healthcare), 500 mM NaCl (GE Healthcare), 20 mM imidazole (pH 7.4) (GE Healthcare), 0.2 mg ml^−1 lysozyme (Sigma-Aldrich), 20 μg ml^−1 DNase I (Roche), 1 mM MgCl2 (Sigma-Aldrich), and 1 mM PMSF (Sigma-Aldrich) before being lysed by sonication and clarified by centrifugation at 15,493×g for 10 min. Proteins were purified from the soluble fraction using His-Spin Trap columns (GE Healthcare) and the binding and acetylation assays were performed.
Acetylation assays were performed according to previously described procedures with minor modifications. […] N-AS (2 μCi, ARC UK Ltd, ARC-1024) at 37 °C for 2 h. [^14C] aspirin (2 μCi, ARC UK Ltd, ARC-0473) was conducted as the positive control. The reactions were terminated by placing the reaction tubes in ice for 5 min. To evaluate in vivo neuronal and microglial COX2 acetylation, 10 μCi [^14C] N-AS was orally administrated to 9-months-old WT and APP/PS1 mice. After 1 h, neuron and microglia were isolated and sonicated in culture media. To immunoprecipitate acetylated COX2, the sample was incubated with COX2 antibody (Abcam, ab15191) at 4 °C for 24 h and precipitated by adding 50 μl of protein-A sepharose (GE Healthcare). Acetylated COX2 proteins bound to the beads were analyzed using a Tri-Carb 3110TR liquid scintillation counter (Perkin-Elmer).

tumors = test system: tumors; set-up: method as in PMID 27043542, PMID 24566153; conditions: cited from earlier work
astrocyte = experiment: immunofluorescence of ac-S565 and COX2 in primary cells; assay type: cell-based, C57BL/6 mice; conditions: Ab 10mM, replicates
Description: (§1) To confirm the generation and roles of N-AS in neurons, cells from E18 C57BL/6 mice were prepared as previously described. Cortices were dissected and then dissociated followed by incubation in papain (Worthington) at 37 °C for 15 min. Neurons were plated on poly-L-lysine-coated coverslips with neuronal culture medium, serum-free Neurobasal medium (Gibco) containing 2% B27 supplements (Gibco), 1 mM Glutamax supplement (Gibco), and 100 U ml^−1 streptomycin/ 100 U ml^−1 penicillin (Gibco) at 37 °C in a humidified atmosphere of 5% CO2. Aβ 1–42 (10 μM, 24 h, Invitrogen, 03112) was exposed to neurons and the cells were analyzed for the generation and roles of N-AS. Primary astrocyte cultures were prepared from C57BL/6 mice as described previously. […] The human microglia treated with Aβ 1–42 and/or zileuton was incubated with N-AS (2.5 μM, 2 h, Sigma-Aldrich, 01912), and were analyzed for the generation and roles of N-AS.
(§2) Thioflavin S (Sigma-Aldrich) staining was carried out according to previously described procedures. […] The sections were analyzed with a laser-scanning confocal microscope (FV3000; Olympus) or with a BX51 microscope (Olympus). MetaMorph software (Molecular Devices) was used to quantification. Three-dimensional reconstruction of microglia was recorded and analyzed using IMARIS software (Bitplane)[11]. […]

microglia = experiment: as above; assay type: cell-based, C57BL/6 mice; conditions: Ab 10mM, replicates
Description: as §1, §2

CC(=O)SCCNC(=O)CCNC(=O)[C@H](O)C(C)(C)COP(=O)(O)OP(=O)(O)OC[C@H]1O[C@@H](n2cnc3c(N)ncnc32)[C@H](O)[C@@H]1OP(=O)(O)O [Acetyl-CoA, acetyl-CoA]
COX2 acetylation with C14 Acetyl CoA (sFig 1i) (COX2; Acetyl transfer: SphK1, Sph, ATP, listed as C14 Acetyl CoA): 10456 and 10500 and 10758 and 10726
COX2 acetylation with C14 Acetyl CoA (sFig 1i) (COX2; Acetyl transfer: SphK1, Sph, listed as C14 Acetyl CoA): 19270 and 24354 and 19216 and 24474 and 19218 and 24370
COX2 acetylation with C14 Acetyl CoA (sFig 1i) (COX2; Acetyl transfer: SphK1, listed as C14 Acetyl CoA): 11878 and 13132 and 13238 and 13414 and 13230
COX2 acetylation with C14 Acetyl CoA (sFig 1i) (COX2; Acetyl transfer: SphK1 R24A, Sph, listed as C14 Acetyl CoA): 12532 and 11618 and 11452 and 12034 and 12526 and 12014
COX2 acetylation with C14 Acetyl CoA (sFig 1i) (COX2; Acetyl transfer: SphK1 R56A, Sph, listed as C14 Acetyl CoA): 9992 and 10060 and 9758 and 9780 and 9270 and 10086
COX2 acetylation with C14 Acetyl CoA (sFig 1i) (COX2; Acetyl transfer: SphK1 R57A, Sph, listed as C14 Acetyl CoA): 14380 and 14360 and 14338 and 14310 and 14334 and 14376
COX2 acetylation with C14 Acetyl CoA (sFig 1i) (COX2; Acetyl transfer: SphK1 R185A, Sph, listed as C14 Acetyl CoA): 10222 and 9944 and 10214 and 10110 and 9988
COX2 acetylation with C14 Acetyl CoA (sFig 1i) (COX2; C14 Acetyl CoA +, Acetyl transfer -): 2366 and 2614 and 2946 and 2710 and 2880 and 2156

CCCCCCCCCCCCC/C=C/[C@@H](O)[C@H](CO)NC(C)=O [N-AS, N-((2S,3R,E)-1,3-Dihydroxyoctadec-4-en-2-yl)acetamide]
apoptosis of tumors (tumors): induce apoptosis of tumors

Ab: Aβ 1–42 (Invitrogen, 03112) used to induce an AD environment in cells
ac-S565 with COX2, immunofluorescence quantification (Fig 3c) (astrocyte): 0.03307 and 0.0783 and 0.03875 and 0.05053 and 0.0718 and 0.07636
ac-S565 with COX2, immunofluorescence quantification (Fig 3c) (microglia): 0.1091 and 0.1473 and 0.02354 and 0.07315 and 0.06621 and 0.05168

Reference: publication PMC7217877, “N-AS-triggered SPMs are direct regulators of microglia in a model of Alzheimer’s disease” (Nature Communications, 2020)
